The results in this text go back to patent publication US20110230493A1, “1-OXA-8-Azaspiro [4,5] Decabe-8-Carboxamide Compounds as FAAH Inhibitors” (Pfizer Inc., priority 2008, published 2011).

One assay deals with T1, rat FAAH (Rattus norvegicus, UniProt P97612).
T1 construct: made in house; host or cells: E. coli
T1 sequence (P97612 1-579): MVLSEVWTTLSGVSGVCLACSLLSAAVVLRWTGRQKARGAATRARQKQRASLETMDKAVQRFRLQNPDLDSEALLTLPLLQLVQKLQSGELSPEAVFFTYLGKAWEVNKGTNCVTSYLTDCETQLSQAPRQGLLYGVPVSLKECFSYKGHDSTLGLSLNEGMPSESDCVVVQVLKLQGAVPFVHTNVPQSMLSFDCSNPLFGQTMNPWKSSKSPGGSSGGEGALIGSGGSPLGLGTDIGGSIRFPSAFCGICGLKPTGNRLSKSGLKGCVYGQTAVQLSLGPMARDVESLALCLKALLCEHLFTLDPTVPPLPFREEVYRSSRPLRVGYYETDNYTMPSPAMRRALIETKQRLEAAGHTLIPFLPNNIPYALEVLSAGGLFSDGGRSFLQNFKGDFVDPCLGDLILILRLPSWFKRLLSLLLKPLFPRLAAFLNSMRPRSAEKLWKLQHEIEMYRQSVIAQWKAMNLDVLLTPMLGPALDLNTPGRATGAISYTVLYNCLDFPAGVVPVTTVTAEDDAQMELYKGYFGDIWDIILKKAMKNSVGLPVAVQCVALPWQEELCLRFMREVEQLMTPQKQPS
As to the kind of experiment: FAAH assay, rat FAAH enzyme inactivation (kinact/Ki). Conditions: oleamide 50 μM, 30° C.; for kinact/KI: pH 7.4, in vitro, read-out: rFAAH kinact/Ki; for rFAAH kinact/Ki: in vitro, pH 7.4. It is filed as biochemical. Put shortly:
(§1)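 Oleamide hydrolysis by 1-4 nM purified E. coli-expressed FAAH (substrate 50 μM = Km) coupled to GDH/NADH, pH 7.4 phosphate, 7.5% DMSO and EtOH, 30° C; A340 followed 90 min. kobs from mono-exponential fits; kinact/Ki from kobs-versus-concentration slope, multiplied by two.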

A further assay has as its target T2, human FAAH (Homo sapiens, UniProt O00519).
T2 construct: made in house; host or cells: E. coli
T2 sequence (O00519 1-579): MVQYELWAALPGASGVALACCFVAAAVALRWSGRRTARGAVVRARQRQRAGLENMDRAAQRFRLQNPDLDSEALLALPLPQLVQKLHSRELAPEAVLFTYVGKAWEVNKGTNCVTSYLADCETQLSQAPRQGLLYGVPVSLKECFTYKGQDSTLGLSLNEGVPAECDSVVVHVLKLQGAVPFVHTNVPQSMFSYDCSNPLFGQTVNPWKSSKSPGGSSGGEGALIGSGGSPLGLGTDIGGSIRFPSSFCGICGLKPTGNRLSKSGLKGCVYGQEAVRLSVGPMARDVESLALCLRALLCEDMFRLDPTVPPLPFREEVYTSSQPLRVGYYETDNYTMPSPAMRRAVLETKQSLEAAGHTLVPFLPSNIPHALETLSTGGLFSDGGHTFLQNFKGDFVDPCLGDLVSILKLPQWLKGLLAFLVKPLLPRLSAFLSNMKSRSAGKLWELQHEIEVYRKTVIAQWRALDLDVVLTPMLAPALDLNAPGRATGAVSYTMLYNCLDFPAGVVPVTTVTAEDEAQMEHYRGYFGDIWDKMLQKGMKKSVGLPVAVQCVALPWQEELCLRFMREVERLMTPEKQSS
Briefly: FAAH assay, human FAAH enzyme inactivation (kinact/Ki). Conditions: oleamide 50 μM, 30° C.; for kinact/KI: pH 7.4, in vitro, read-out: hFAAH kinact/Ki; for hFAAH kinact/Ki: in vitro, pH 7.4. In kind it is biochemical. In a few lines: as §1

In a further assay the test system is Male Sprague-Dawley Rats. As to the kind of experiment: In vivo Complete Freund's Adjuvant (CFA) efficacy assay, inhibition of allodynia. Conditions: 3 mpk, oral dosing; PWT four hours postdose; p < 0.05 vs vehicle group. Details: species or system rat; key: (+) indicates the test compound was determined to be efficacious at 3 mpk, oral dosing; (−) indicates the test compound was determined to not be efficacious at 3 mpk, oral dosing. Put shortly: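 Adult male Sprague-Dawley rats weighing 200 g-250 g received an intra-plantar injection of 150 uL Complete Freund's Adjuvant into the left hindpaw to induce inflammation. On day 4 after injection, baseline paw withdrawal threshold was measured with Von Frey hairs using the Dixon Up and Down method. Threshold was measured again at four hours postdose. Treatment groups were compared by ANOVA with Dunnett's two-tailed test.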

Take `Cc1noc(NC(=O)N2CCC3(CC2)C[C@H](c2ccc(OCc4ccc(F)cc4)cc2)CO3)c1C` [Example 41, (3R)—N-(3,4-dimethylisoxazol-5-yl)-3-{4-[(4-fluorobenzyl)oxy]phenyl}-1-oxa-8-azaspiro[4.5]decane-8-carboxamide]: the kinact/KI was found to be 15800 M⁻¹ s⁻¹ on rat FAAH and 12500 M⁻¹ s⁻¹ at human FAAH. For the same molecule, the “CFA Efficacy” value in the assay with Male Sprague-Dawley Rats is “(+)”.
On to `Cc1noc(NC(=O)N2CCC3(CC2)CC(c2noc(-c4ccc(C(F)(F)F)cc4)n2)CO3)c1C` (single isomer, unassigned) [Example 75, N-(3,4-dimethylisoxazol-5-yl)-3-{5-[4-(trifluoromethyl)phenyl]-1,2,4-oxadiazol-3-yl}-1-oxa-8-azaspiro[4.5]decane-8-carboxamide], for which the values for the kinact/KI on rat FAAH and on human FAAH were 1610 M⁻¹ s⁻¹ and 3570 M⁻¹ s⁻¹, respectively. The “CFA Efficacy” value with Male Sprague-Dawley Rats is given as “(+)”.
`Cc1noc(NC(=O)N2CCC3(CC2)CC(c2ccc(Cl)c(Cl)c2)CO3)c1C` (single isomer, unassigned) [Example 37, 3-(3,4-dichlorophenyl)-N-(3,4-dimethylisoxazol-5-yl)-1-oxa-8-azaspiro[4.5]decane-8-carboxamide]: the kinact/KI at rat FAAH worked out at 4540 M⁻¹ s⁻¹. Further, the “hFAAH kinact/Ki” value on human FAAH was 4130 M⁻¹ s⁻¹. Moreover, the “CFA Efficacy” value in the assay with Male Sprague-Dawley Rats is given as “(+)”.
In the case of `Cc1noc(NC(=O)N2CCC3(CC2)C[C@@H](c2cccc(-c4ccc(Cl)cc4)c2)CO3)c1C` [Example 62, (3S)-3-(4′-chlorobiphenyl-3-yl)-N-(3,4-dimethylisoxazol-5-yl)-1-oxa-8-azaspiro[4.5]decane-8-carboxamide], the figures for the kinact/KI on rat FAAH and at human FAAH were 2260 M⁻¹ s⁻¹ and 2920 M⁻¹ s⁻¹, respectively. Besides, the “CFA Efficacy” value in the assay on Male Sprague-Dawley Rats is listed as “(+)”.
With `Cc1noc(NC(=O)N2CCC3(CC2)C[C@@H](c2ccc(OCc4ccc(F)cc4)cc2)CO3)c1C` [Example 42, (3S)—N-(3,4-dimethylisoxazol-5-yl)-3-{4-[(4-fluorobenzyl)oxy]phenyl}-1-oxa-8-azaspiro[4.5]decane-8-carboxamide], the kinact/KI on rat FAAH amounted to 5320 M⁻¹ s⁻¹; at human FAAH it was 5590 M⁻¹ s⁻¹. Besides, the “CFA Efficacy” value in the assay on Male Sprague-Dawley Rats is on record as “(+)”.
Turning to `Cc1noc(NC(=O)N2CCC3(CC2)C[C@H](c2ccc(OCc4cccc(F)c4)cc2)CO3)c1C` [Example 47, (3R)—N-(3,4-dimethylisoxazol-5-yl)-3-{4-[(3-fluorobenzyl)oxy]phenyl}-1-oxa-8-azaspiro[4.5]decane-8-carboxamide], the kinact/KI was found to be 6260 M⁻¹ s⁻¹ at rat FAAH and 9350 M⁻¹ s⁻¹ on human FAAH. Further, the “CFA Efficacy” value in the assay on Male Sprague-Dawley Rats was “(+)”.
In the case of `Cc1noc(NC(=O)N2CCC3(CC2)CC(c2ccc(OCc4cccc(Cl)c4)c(Cl)c2)CO3)c1C` (single isomer, unassigned) [Example 46, 3-{3-chloro-4-[(3-chlorobenzyl)oxy]phenyl}-N-(3,4-dimethylisoxazol-5-yl)-1-oxa-8-azaspiro[4.5]decane-8-carboxamide], the “rFAAH kinact/Ki” value at rat FAAH is 6920 M⁻¹ s⁻¹. The “hFAAH kinact/Ki” value on human FAAH was found to be 4490 M⁻¹ s⁻¹. In the assay on Male Sprague-Dawley Rats, the “CFA Efficacy” value is reported as “(+)”.
Take `Cc1noc(NC(=O)N2CCC3(CC2)CC(c2noc(-c4ccc(C(F)(F)F)cc4)n2)CO3)c1C` (single isomer, unassigned) [Example 76, N-(3,4-dimethylisoxazol-5-yl)-3-{5-[4-(trifluoromethyl)phenyl]-1,2,4-oxadiazol-3-yl}-1-oxa-8-azaspiro[4.5]decane-8-carboxamide]: the “rFAAH kinact/Ki” value at rat FAAH is 1150 M⁻¹ s⁻¹. The “hFAAH kinact/Ki” value at human FAAH is 3120 M⁻¹ s⁻¹. Moreover, in the assay on Male Sprague-Dawley Rats, the “CFA Efficacy” value is reported as “(+)”.
